Measurements as given in US12636378B2, “Targeted antigen delivery system and uses thereof” (SRI International, priority 2020, dated 2026).
Entries after “also recorded” stand apart in the source; their conditions may differ. Like-named read-outs stand apart in the source and are kept apart here. No end group written: not given here.

Key:
[1] = Physicochemical properties of peptides (hydrophobicity, solubility, stability)
[2] = tested on: subcutaneous H1993 NSCLC tumor; assay: NIR imaging of dye-labeled peptides in mice with subcutaneous H1993 tumor; format: in vivo; details: for tumor accumulation / tumor targeting: Alexa Fluor 750 conjugate, tail vein injection
Method: The peptides were conjugated to Alexa Fluor 750 dye and […] injected intravenously via the tail vein into mice bearing a subcutaneous H1993 NSCLC tumor on their right flank.
SRI_MGS5_V2 and parental SRI_MGS5_V1 were labeled with the near-infrared dye Alexa Fluor 750 for imaging. […] For example, SRI_MGS5_V2 has 3-fold lower signal in the lung compared to SRI_MGS5_V1. […] Importantly, the corresponding nonacetylated versions of each peptide were evaluated as well.

[3] = tested on: normal control human lung epithelial cell line (HBEC); details: cited from earlier work
[4] = tested on: cancer cells; details: cited from earlier work
[5] = tested on: NSCLC lines; assay: Flow cytometry binding to NSCLC lines; format: cell-based, human
Excerpt: (§1) The final optimized SRI_MGS5_V1 peptide, SRI_MGS5_V2, has the following characteristics.

[6] = tested on: normal control human lung epithelial cell line (HBEC); assay: Binding to normal lung epithelial cells; format: cell-based
Excerpt: as §1

[7] = tested on: breast cancer lines (MCF-7, MDA-MB-231and 4T1); assay: Binding to breast cancer lines; format: cell-based
Excerpt: as §1

[8] = tested on: 4T1 cells; assay: Quantitative flow cytometry binding and internalization in 4T1 cells; format: cell-based, mouse
[9] = tested on: pancreatic cancer line (Pan02); assay: Flow cytometry binding and internalization in Pan02 cells; format: cell-based, mouse
Excerpt: as §1

[10] = tested on: glioma cell line (GL-261); assay: Flow cytometry binding and internalization in GL261 cells; format: cell-based, mouse
Excerpt: as §1

[11] = tested on: panel of cancer cell lines; assay: Binding in a panel of cancer cell lines; format: cell-based
[12] = tested on: three human NSCLC cell lines; assay: Quantitative flow cytometry uptake assay, NSCLC cell lines; format: cell-based
Method: Uptake is represented as an average number of peptides per cell. Error bars are smaller than the symbol for some points.
(§2) A quantitative flow cytometry assay was performed that measures the average number of molecules of peptide internalized per cell. […] The number of molecules internalized ranges from 1×10^5 molecules/cell for H358 cells to 8×10^5 for H1993 cells, corresponding to intracellular concentrations of 100-800 nM. The rate of uptake at 6 hours is not saturated and it appears that peptide continues to enter the cell past this time (FIG. 5 and FIG. 6). This indicates either high receptor numbers which have not yet saturated or rapid recycling of the receptor that allows for continual delivery, reaching high intracellular concentrations of the peptide.

[13] = tested on: H358 cells; assay: Quantitative flow cytometry uptake assay, H358; format: cell-based, human
Method: H358 cell line data has been not included in FIG. 6 for clarity due to differences in the Y axis.
as §2

[14] = tested on: H1993 cells; assay: Quantitative flow cytometry uptake assay, H1993; format: cell-based, human
Method: as §2

[15] = tested on: H1993 NSCLC cells; assay: Confocal microscopy, co-localization of peptide with autophagic vesicles; format: cell-based, human; details: 100 nM
Method: FIGS. 7A-7C show an example of co-localization of SRI_MGS5_V2 peptides with autophagic vesicles (A) H1993 cells treated with 100 nM of SRI_MGS5_V1 peptide (panel A) and optimized SRI_MGS_V2 (panels B and C) conjugated with Alexa Fluor 647 (Red). Autophagosomes are stained with LC3B antibody (Green). The regions corresponding to co-localization of the peptide and autophagic vesicles are shown in yellow.
(§3) Therefore, accumulation in autophagosomes is a necessary component for success of this immunotherapy.

[16] = tested on: LLC1 cells; assay: Confocal microscopy, autophagic vesicles in LLC1 cells; format: cell-based, mouse
Excerpt: as §3

[17] = tested on: LLC1 tumors; details: 15 μg I.V., Alexa Fluor 750 conjugate, 72 hours
Method: The LLC1 tumors were grown until palpable (≈500 mm^3) at which point mice were treated I.V. with 15 μg of SRI_MGS5_V2 conjugated to Alexa Fluor 750. Images were taken daily for 72 hours, after which the animal was sacrificed, and its organs were assessed to determine localization of the targeting peptide.

[18] = tested on: H1993 cells; assay: Co-culture assay, liposome treated H1993 cells with HLA-A2 positive PBMCs, cytokine ELISA; format: cell-based, human
Method: TALL treated H1993 cells were co-cultured with HLA-A2 positive PBMCs and culture supernatants were analyzed for TNF-α secretion. Concentration of all liposomes used in this assay corresponded to ≈4.5 mg/ml of phosphatidyl choline. Free H250 peptide control is incubated at 5 μmol/L.
TALL treated H1993 cells were co-cultured with HLA-A2 positive PBMCs and culture supernatants were analyzed for IFNγ secretion. Concentration of all liposomes used in this assay corresponded to ≈4.5 mg/ml of phosphatidyl choline. Free H250 peptide control is incubated at 5 μmol/L.
(§4) The liposomes were loaded with the H250 antigenic peptide and SRI_MGS5_V2 or SRI_MGS5_V1 was conjugated to the external face of the liposome via maleimide chemistry. The liposomes were incubated with H1993 cells followed by co-culture with peripheral blood mononuclear cells (PBMCs) from an anonymous donor that is haplotype HLA A2+ and vaccinated against measles. […] More experiments testing different liposome variants and assessing TNF-α and INF-γ in co-culture were performed. […] The same experiments were completed using mouse LLC1 cells as the antigen presenting cells and lymph node lymphocytes (LNL) from C57B1/6 mice that had been vaccinated against HA.

[19] = tested on: LLC1 cells; assay: Co-culture assay, liposome treated LLC1 cells, cytokine ELISA; format: cell-based, murine
Method: TALL treated LLC1 cells were co-cultured with HLA-A2 positive PBMCs and culture supernatants were analyzed for TNF-α a secretion. […] Concentration of all liposomes used in this assay corresponded to ≈4.5 mg/ml of phosphatidyl choline. Free H250 peptide control is incubated at 5 μmol/L.
TALL treated LLC1 cells were co-cultured with HLA-A2 positive PBMCs and culture supernatants were analyzed for IFN-γ secretion. […] Concentration of all liposomes used in this assay corresponded to ≈4.5 mg/ml of phosphatidyl choline. Free H250 peptide control is incubated at 5 μmol/L.
as §4

[20] = tested on: Multiple Different Cancer Types; assay: Functional presentation of antigenic peptide in multiple cancer types; format: cell-based
Excerpt: Treatment groups: A—MGS5_V2 Targeted Liposome Loaded with H250 Antigen; B—Positive Control: Cells Pulsed with Free H250 Antigen; C—No MGS on Liposome Loaded with H250 Antigen; D—Blank Liposomes—no H250 Antigen.

[21] = tested on: H1993 cells
[22] = tested on: 4T1 cells implanted in mammary fat pads; details: nIR dye-labelled peptide
[23] = tested on: Pan02 cells; details: fluorescent dye-labelled peptide
[24] = tested on: GL261 cells implanted in the brain; details: fluorescent dye-labelled peptide
[25] = HLA A*02:01 patients; cited from earlier work

For SLSAYIIRV [H3L, SLSAYIIRV], the biophysical properties [1] was “hydrophobic, difficult to purify, and unstable”.
In the case of SLWGSLLML [C166, SLWGSLLML], the biophysical properties [1] is reported as “hydrophobic, difficult to purify, and unstable”.
With “SRI_MGS5_V1: parental tumor-targeting peptide, dimer comprising LQWRRDDNVHNFGVWARYRL (SEQ ID NO:2) (also: dimer) [reference compound]” the “off-tumor signal in vivo” value ([2]; 24 H) was “significant signal along the dorsal side”, the “tumor accumulation / tumor targeting” value [2] was “accumulate specifically” and the “extent of tumor uptake, V1 versus V2” value ([2]; mouse, in vivo) was “roughly the same degree”. The “time to localization at the tumor site” value ([2]; mouse, in vivo) was ≤ 24 h, the tumor signal maintained ([2]; mouse, in vivo) was 72 h and the “binding to normal human bronchial epithelial cells” value [3] was “limited binding”. The “accumulation in cancer cells” value [4] was “selectively accumulate”.
For “(CH3CO-LQWRRNFGVWARYRL-PEG11)2K-X (not fully specified; N-acetyl, PEG11, dimerized on lysine core, tag X; targeting sequence) [SRI_MGS5_V2]”, the “binding to NSCLC lines compared to parental SRI_MGS5_V1” value [5] was “greater binding affinity; also recorded: increased binding”, the “discrimination between NSCLC cancer and normal cells in the lung” value [6] was “high discriminating power” and the “binding to breast cancer lines” value [7] was “shown to bind; also recorded: binds”. The “binding and internalization in 4T1 cells” value [8] was “concentration dependent binding and internalization”, the “binding (and internalization) in Pan02 cells” value [9] was “shown to bind; also recorded: binds” and the “binding (and internalization) in Pan02 cells” value ([9]; listed as MGS5_V2) was “concentration dependent binding and internalization”. The “binding (and internalization) in GL261 cells” value [10] was “shown to bind; also recorded: binds”, the “binding (and internalization) in GL261 cells” value ([10]; listed as MGS5_V2) was “concentration dependent binding and internalization” and the “binding in a panel of cancer cell lines” value [11] was “improved binding”. The “uptake at low temperature” value ([12]; 4° C.) was “greatly reduced”, the rate of uptake ([12]; at 6 hours, 100 nM dye-labeled peptide) was “not saturated” and the intracellular concentrations ([12]; corresponding to molecules/cell from H358 to H1993) was 100 to 800 nM. The internalization ([12]; three human NSCLC cell lines) was “is internalized”, the “number of molecules internalized” value [13] was 1×10^5 molecules/cell and the “number of molecules internalized” value [14] was 8×10^5 molecules/cell. For the same substance, the “accumulation in autophagic vesicles compared to parental MGS5_V1” value [15] was “much greater extent”, the “accumulation in autophagic vesicles” value [16] was “Comparable results” and the “tumor accumulation / tumor targeting” value [2] was “accumulate specifically”. The “non-specific accumulation in the lung and other organs vs acetylated SRI_MGS5_V1” value ([2]; ex vivo imaging at 72 H) was “reduced non-specific accumulation”, the “less signal in the kidneys compared to SRI_MGS5_V1” value ([2]; ex vivo, 72 H) was 2.2 fold and the “extent of tumor uptake, V1 versus V2” value ([2]; mouse, in vivo) was “roughly the same degree”. The “less signal in the liver compared to SRI_MGS5_V1” value ([2]; mouse, in vivo) was 1.6 fold, the “lower signal in the lung compared to SRI_MGS5_V1” value ([2]; mouse, in vivo) was 3 fold and the “time to localization at the tumor site” value ([2]; mouse, in vivo) was ≤ 24 h. For the same substance, the tumor signal maintained ([2]; mouse, in vivo) was 72 h, the “localization in LLC1 tumor” value ([17]; listed as SRI_MGS2_V2) was “successfully localized” and the “localization in LLC1 tumor” value ([17]; listed as SRI_MGS5_V5) was “homes to LLC1 tumors”. The “presentation of encapsulated immunogenic peptide in HLA class I molecules (IFNγ ELISA)” value [18] was “facilitates presentation”, the “presentation of encapsulated immunogenic peptide in HLA class I molecules (TNF-α ELISA)” value [18] was “facilitates presentation” and the “presentation of encapsulated immunogenic peptide in HLA class I molecules (IFN-γ ELISA)” value [19] was “facilitates presentation”. For the same substance, the “presentation of encapsulated immunogenic peptide in HLA class I molecules (TNF-α ELISA)” value [19] was “facilitates presentation”, the “functional presentation of antigenic peptide” value [20] was “Mediates Functional Presentation” and the cell viability ([21]; 72 hours, concentrations as high as 250 μM) was “No significant loss of viability”. For the same substance, the toxicity of uptake ([21]; H1993 cells) was “not toxic”, the “tumor localization, orthotopic 4T1” value [22] was “homes to tumors” and the “tumor localization, orthotopic 4T1” value ([22]; listed as MGS5_V2) was “localized within the tumors”. The “tumor localization, orthotopic Pan02” value [23] was “homes to tumors”, the “tumor localization, orthotopic Pan02” value ([23]; listed as MGS5_V2) was “localized in the tumor” and the “tumor localization, orthotopic GL261” value [24] was “homes to tumors”. The “tumor localization, orthotopic GL261” value ([24]; listed as MGS5_V2) was “targets GL261 cells”.
In the case of “SMYRVFEVGV [H250, measles virus hemagglutinin peptide, HLA class I (A*02:01) restricted]”, the immunogenic response [25] is given as “strong CD8 specific IFNγ response; also recorded: strong CD8 specific IFNy response”.
For ILPGQDLQYV [H516], the immunogenic response [25] is listed as “highly immunogenic”.
